Tested on: NOMO1
Experiment: cell viability relative to DMSO control; higher = less cytotoxic
Conditions: 48 h
In short: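 Leukemia cells (NOMO1 or SEM, 500 cells/well; P12-Ichikawa, 1000 cells/well) were seeded in 5 μl in 1536-well plates after at least four passages of adaptation to each medium. They received library compounds in DMSO by pin dosing, 11 threefold points from 47 μM to 0.79 nM. Luminescence with CellTiter-Glo One was read after 48 h at 37°C. Viability is stated per plate relative to DMSO wells, with cell-free wells as background.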

[1] = HPLM + 10% dialyzed FBS, 0.000781 µM
[2] = HPLM + 10% dialyzed FBS, 0.00234 µM
[3] = HPLM + 10% dialyzed FBS, 0.00702 µM
[4] = HPLM + 10% dialyzed FBS, 0.0211 µM
[5] = HPLM + 10% dialyzed FBS, 0.0632 µM
[6] = HPLM + 10% dialyzed FBS, 0.19 µM
[7] = HPLM + 10% dialyzed FBS, 0.569 µM
[8] = HPLM + 10% dialyzed FBS, 1.71 µM
[9] = HPLM + 10% dialyzed FBS, 5.12 µM
[10] = HPLM + 10% dialyzed FBS, 15.4 µM
[11] = HPLM + 10% dialyzed FBS, 46.1 µM
[12] = RPMI 5 mM glucose + 10% FBS, 0.000781 µM
[13] = RPMI 5 mM glucose + 10% FBS, 0.00234 µM
[14] = RPMI 5 mM glucose + 10% FBS, 0.00702 µM
[15] = RPMI 5 mM glucose + 10% FBS, 0.0211 µM
[16] = RPMI 5 mM glucose + 10% FBS, 0.0632 µM
[17] = RPMI 5 mM glucose + 10% FBS, 0.19 µM
[18] = RPMI 5 mM glucose + 10% FBS, 0.569 µM
[19] = RPMI 5 mM glucose + 10% FBS, 1.71 µM
[20] = RPMI 5 mM glucose + 10% FBS, 5.12 µM
[21] = RPMI 5 mM glucose + 10% FBS, 15.4 µM
[22] = RPMI 5 mM glucose + 10% FBS, 46.1 µM
[23] = RPMI 5 mM glucose + 10% dialyzed FBS, 0.000781 µM
[24] = RPMI 5 mM glucose + 10% dialyzed FBS, 0.00234 µM
[25] = RPMI 5 mM glucose + 10% dialyzed FBS, 0.00702 µM
[26] = RPMI 5 mM glucose + 10% dialyzed FBS, 0.0211 µM
[27] = RPMI 5 mM glucose + 10% dialyzed FBS, 0.0632 µM
[28] = RPMI 5 mM glucose + 10% dialyzed FBS, 0.19 µM
[29] = RPMI 5 mM glucose + 10% dialyzed FBS, 0.569 µM
[30] = RPMI 5 mM glucose + 10% dialyzed FBS, 1.71 µM
[31] = RPMI 5 mM glucose + 10% dialyzed FBS, 5.12 µM
[32] = RPMI 5 mM glucose + 10% dialyzed FBS, 15.4 µM
[33] = RPMI 5 mM glucose + 10% dialyzed FBS, 46.1 µM

| SMILES | cell viability [1] [%] | cell viability [2] [%] | cell viability [3] [%] | cell viability [4] [%] | cell viability [5] [%] | cell viability [6] [%] | cell viability [7] [%] | cell viability [8] [%] | cell viability [9] [%] | cell viability [10] [%] | cell viability [11] [%] | cell viability [12] [%] | cell viability [13] [%] | cell viability [14] [%] | cell viability [15] [%] | cell viability [16] [%] | cell viability [17] [%] | cell viability [18] [%] | cell viability [19] [%] | cell viability [20] [%] | cell viability [21] [%] | cell viability [22] [%] | cell viability [23] [%] | cell viability [24] [%] | cell viability [25] [%] | cell viability [26] [%] | cell viability [27] [%] | cell viability [28] [%] | cell viability [29] [%] | cell viability [30] [%] | cell viability [31] [%] | cell viability [32] [%] | cell viability [33] [%] |
| --- | --- | --- | --- | --- | --- | --- | --- | --- | --- | --- | --- | --- | --- | --- | --- | --- | --- | --- | --- | --- | --- | --- | --- | --- | --- | --- | --- | --- | --- | --- | --- | --- | --- |
| COc1cccc([C@@H](C)NCCCc2ccccc2Cl)c1 | 83 | 104 | 83.2 | 111 | 91.5 | 113 | 95.6 | 110 | 103 | 95.9 | 110 | 84.4 | 86.1 | 87.2 | 97.5 | 93.9 | 88 | 94.7 | 86.1 | 94.8 | 94.6 | 101 | 86.2 | 100 | 92.3 | 84.4 | 100 | 101 | 87.9 | 90 | 111 | 106 | 104 |
| NC(=O)C1CCCc2c1[nH]c1ccc(Cl)cc21 (stereo not drawn) | 111 | 129 | 121 | 117 | 123 | 117 | 105 | 87.6 | 57.4 | 24.2 | 7.26 | 117 | 121 | 123 | 105 | 105 | 123 | 115 | 109 | 81.4 | 21.4 | 9.96 | 107 | 121 | 111 | 129 | 119 | 116 | 110 | 116 | 85.5 | 24.3 | 12 |
| N#Cc1ccnc(Nc2cc(C3CCN(C4COC4)CC3)cc(N3CCC(F)(F)C3)n2)c1 | 121 | 109 | 119 | 114 | 103 | 110 | 114 | 124 | 127 | 53.2 | 10.6 | 101 | 99.7 | 106 | 106 | 93.6 | 108 | 105 | 102 | 107 | 44.7 | 11.3 | 108 | 91.6 | 110 | 102 | 96.2 | 107 | 98.7 | 108 | 107 | 39.1 | 9.87 |
| COc1ccc(Nc2nccc(NCCO)n2)cc1 | 75.3 | 86.5 | 84.9 | 97.5 | 86 | 96.7 | 88.8 | 99.5 | 74.5 | 84.9 | 22.7 | 72.7 | 86.4 | 73.6 | 83.5 | 79.6 | 79.8 | 79.6 | 79 | 15.8 | 81.3 | 91.8 | 61.9 | 63.7 | 69.4 | 73.9 | 73.8 | 76.9 | 68.9 | 75.5 | 23.6 | 76.9 | 76.2 |
| [O-]C(=O)C1=C(C(=C(Cl)C(=C1Cl)Cl)Cl)C/2=C/3\C=C(I)/C(=O)/C(=C3OC4=C2C=C(I)C(=C4I)[O-])I | 101 | 136 | 116 | 122 | 140 | 129 | 143 | 133 | 130 | 113 | 102 | – | – | – | – | – | – | – | – | – | – | – | – | – | – | – | – | – | – | – | – | – | – |
| Nc1nnc(-c2cccc(Cl)c2Cl)c(N)n1 | 95.9 | 89.7 | 97.6 | 33 | 107 | 113 | 112 | 98.9 | 121 | 108 | 115 | 89.2 | 86.6 | 93.5 | 23.7 | 112 | 96.5 | 88.4 | 96.1 | 102 | 95.2 | 102 | 76 | 89.2 | 94 | 43.7 | 96.2 | 93.1 | 99 | 108 | 103 | 98.6 | 99.1 |
| COCCOc1nc(-c2ccc(Cl)c(Cl)c2)n(-c2ccc(NC(=O)CCl)cc2)n1 | 92.5 | 113 | 110 | 114 | 113 | 115 | 96.6 | 110 | 87.2 | 85 | 107 | 78.3 | 86.9 | 84.4 | 82.7 | 85 | 87.6 | 80.7 | 84.9 | 91.3 | 92.6 | 86.7 | 82.7 | 92.1 | 93.5 | 83.7 | 97.4 | 87.5 | 96.9 | 93.9 | 86.4 | 79.7 | 104 |
| Cc1cnc(C(=O)O)c[n+]1[O-] | – | – | – | – | – | – | – | – | – | – | – | 109 | 122 | 110 | 127 | 129 | 115 | 101 | 118 | 105 | 103 | 112 | – | – | – | – | – | – | – | – | – | – | – |
| Cn1cc(/C=C2\C(=O)Nc3cccnc32)c2ccccc21 | 118 | 138 | 122 | 138 | 157 | 138 | 138 | 146 | 126 | 123 | 98.8 | 113 | 119 | 130 | 129 | 143 | 123 | 124 | 142 | 125 | 77.1 | 89.3 | 117 | 118 | 117 | 132 | 130 | 140 | 141 | 147 | 128 | 78.2 | 84.3 |
